This passage reports IC50 results from patent publication US7253171B2 (Laboratorios Almirall, S.A., priority 2001, dated 2007).

SMILES strings stand for the structures.

The target of this test is T1, α4β1 integrin (Homo sapiens, UniProt P05556+P13612).
T1 construct: endogenous in cells; host or cells: U-937 cells
T1 sequence (P13612 34-1032): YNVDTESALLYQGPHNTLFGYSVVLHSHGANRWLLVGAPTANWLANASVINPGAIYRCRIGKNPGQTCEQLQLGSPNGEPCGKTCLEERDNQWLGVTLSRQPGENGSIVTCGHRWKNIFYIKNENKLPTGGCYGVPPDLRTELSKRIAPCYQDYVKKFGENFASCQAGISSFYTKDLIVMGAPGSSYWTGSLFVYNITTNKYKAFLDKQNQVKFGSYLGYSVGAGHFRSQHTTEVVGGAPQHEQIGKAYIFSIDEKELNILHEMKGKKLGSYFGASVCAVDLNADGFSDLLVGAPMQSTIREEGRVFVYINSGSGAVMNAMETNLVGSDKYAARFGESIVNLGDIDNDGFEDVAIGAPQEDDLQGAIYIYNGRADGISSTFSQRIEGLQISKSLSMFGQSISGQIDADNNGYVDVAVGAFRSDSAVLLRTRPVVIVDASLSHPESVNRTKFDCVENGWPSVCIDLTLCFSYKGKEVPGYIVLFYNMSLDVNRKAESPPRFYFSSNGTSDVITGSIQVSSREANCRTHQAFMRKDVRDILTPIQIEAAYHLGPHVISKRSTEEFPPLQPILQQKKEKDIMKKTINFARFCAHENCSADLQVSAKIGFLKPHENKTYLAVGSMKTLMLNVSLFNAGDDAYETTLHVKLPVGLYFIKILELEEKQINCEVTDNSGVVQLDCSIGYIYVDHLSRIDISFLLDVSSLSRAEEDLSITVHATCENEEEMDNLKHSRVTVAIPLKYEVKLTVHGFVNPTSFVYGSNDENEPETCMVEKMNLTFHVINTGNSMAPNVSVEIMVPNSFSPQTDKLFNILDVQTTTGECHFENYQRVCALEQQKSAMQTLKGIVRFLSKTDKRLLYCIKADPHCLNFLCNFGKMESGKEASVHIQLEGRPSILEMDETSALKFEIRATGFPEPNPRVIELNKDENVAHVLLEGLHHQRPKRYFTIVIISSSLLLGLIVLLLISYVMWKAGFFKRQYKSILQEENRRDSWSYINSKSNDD
T1 sequence (P05556 21-798): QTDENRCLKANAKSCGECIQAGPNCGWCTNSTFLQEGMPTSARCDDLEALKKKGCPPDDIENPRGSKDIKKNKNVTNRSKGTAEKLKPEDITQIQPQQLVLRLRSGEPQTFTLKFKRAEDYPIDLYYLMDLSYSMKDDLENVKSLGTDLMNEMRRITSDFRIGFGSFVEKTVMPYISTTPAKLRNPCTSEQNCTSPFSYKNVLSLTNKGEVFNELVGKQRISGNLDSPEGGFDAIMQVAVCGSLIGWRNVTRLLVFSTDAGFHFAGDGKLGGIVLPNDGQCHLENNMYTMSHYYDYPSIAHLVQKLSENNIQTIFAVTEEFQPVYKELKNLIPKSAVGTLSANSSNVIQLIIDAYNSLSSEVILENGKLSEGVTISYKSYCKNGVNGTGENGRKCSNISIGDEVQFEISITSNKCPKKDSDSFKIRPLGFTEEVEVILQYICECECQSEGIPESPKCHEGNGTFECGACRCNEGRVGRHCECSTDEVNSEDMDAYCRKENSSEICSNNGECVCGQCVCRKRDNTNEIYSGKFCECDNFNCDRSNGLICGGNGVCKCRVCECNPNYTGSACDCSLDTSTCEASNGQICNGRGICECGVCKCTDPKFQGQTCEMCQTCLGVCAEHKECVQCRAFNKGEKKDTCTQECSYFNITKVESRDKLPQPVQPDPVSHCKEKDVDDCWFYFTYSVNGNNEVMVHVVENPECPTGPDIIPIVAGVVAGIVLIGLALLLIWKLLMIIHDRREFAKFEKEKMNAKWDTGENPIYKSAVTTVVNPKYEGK
As to the kind of experiment: U-937 cell adhesion to human VCAM-1 (α4β1 binding assay). The test is classed as cell-based. To be noted: U-937 cells, immobilized human VCAM-1; read-out: IC50 values in the α4β1 assays. On the procedure:
U-937 Cell Adhesion to Human VCAM-1 (α4β1 Binding Assay)
Recombinant human soluble VCAM-1 (R&D Systems Ltd., UK) at 2 μg/ml in PBS was immobilized overnight onto microtiter plates. Unbound VCAM-1 was washed away and VCAM-1 coated plates were blocked with bovine serum albumin (BSA) 2,5% in PBS for 2 h at room temperature. U-937 cells were labelled with 5-carboxyfluorescein diacetate (5-CFDA) in order to detect bound cells to the wells. Test compounds were added to the wells followed by U-937 cells and the adhesion assay was performed for 1 h at 37° C. Following incubation, the wells were emptied and washed. Inhibition of binding was measured by the quantity of fluorescence bound to the plate for each of the various concentrations of test compound, as well as for controls containing no test compound, with a Cytofluor 2300 fluorescence measurement system.
As for `CN(C(=O)c1ccccc1NC(=O)N[C@@H](Cc1ccc(NC(=O)c2c(Cl)cccc2Cl)cc1)C(=O)O)C1CCCCC1` [Example 2], the 50% inhibitory concentration (IC50) is under 100 nM.

For the molecule `CCCCN(Cc1cccs1)S(=O)(=O)c1ccccc1NC(=O)N[C@@H](Cc1ccc(NC(=O)c2c(Cl)cccc2Cl)cc1)C(=O)O` [Example 20, (S)-2-{3-[2-(Butylthiophen-2-ylmethylsulfamoyl)phenyl]ureido}-3-[4-(2,6-dichlorobenzoylamino)phenyl]propionic acid], the 50% inhibitory concentration (IC50) is under 100 nM.

Regarding `O=C(Nc1ccccc1S(=O)(=O)NCc1cccs1)N[C@@H](Cc1ccc(NC(=O)c2c(Cl)cccc2Cl)cc1)C(=O)O` [Example 21, (S)-3-[4-(2,6-Dichlorobenzoylamino)phenyl]-2-(3-{2-[(thiophen-2-ylmethyl)sulfamoyl]phenyl}ureido)propionic acid], the IC50 was under 100 nM.

As to `O=C(Nc1ccccc1S(=O)(=O)Nc1ccccc1)N[C@@H](Cc1ccc(NC(=O)c2c(Cl)cccc2Cl)cc1)C(=O)O` [Example 22, (S)-3-[4-(2,6-Dichlorobenzoylamino)phenyl]-2-[3-(2-phenylsulfamoylphenyl)ureido]propionic acid], the IC50 was under 100 nM.

In the case of `CN(C(=O)N[C@@H](Cc1ccc(NC(=O)c2c(Cl)cccc2Cl)cc1)C(=O)O)c1ccccc1C(=O)N(C)C1CCCCC1` [Example 32], the IC50 is under 100 nM.

For the molecule `O=C(Nc1ccccc1S(=O)(=O)c1ccccc1)N[C@@H](Cc1ccc(NC(=O)c2c(Cl)cccc2Cl)cc1)C(=O)O` [Example 36, (S)-2-[3-(2-Benzenesulfonylphenyl)ureido]-3-[4-(2,6-dichlorobenzoylamino)phenyl]propionic acid], the half-inhibitory concentration (IC50) is under 100 nM.

With `O=C(Nc1ccccc1Sc1ccccc1)N[C@@H](Cc1ccc(NC(=O)c2c(Cl)cccc2Cl)cc1)C(=O)O` [Example 44, (S)-3-[4-(2,6-Dichlorobenzoylamino)phenyl]-2-[3-(2-phenylsulfanylphenyl)ureido]propionic acid], the half-inhibitory concentration (IC50) is under 100 nM.

As for `O=C(Nc1cc(Cl)ccc1S(=O)(=O)c1ccccc1)N[C@@H](Cc1ccc(NC(=O)c2c(Cl)cccc2Cl)cc1)C(=O)O` [Example 48, (S)-2-[3-(2-Benzenesulfonyl-5-chlorophenyl)ureido]-3-[4-(2,6-dichlorobenzoylamino)phenyl]propionic acid], the IC50 was under 100 nM.

As for `Cc1ccc(S(=O)(=O)c2ccc(Cl)c(NC(=O)N[C@@H](Cc3ccc(NC(=O)c4c(Cl)cccc4Cl)cc3)C(=O)O)c2)cc1` [Example 54, (S)-2-{3-[2-Chloro-5-(toluene-4-sulfonyl)phenyl]ureido}-3-[4-(2,6-dichlorobenzoylamino)phenyl]propionic acid], the IC50 was under 100 nM.

Take `O=C(Nc1cccnc1S(=O)(=O)c1ccccc1)N[C@@H](Cc1ccc(NC(=O)c2c(Cl)cccc2Cl)cc1)C(=O)O` [Example 58, (S)-2-[3-(2-Benzenesulfonylpyridin-3-yl)ureido]-3-[4-(2,6-dichlorobenzoylamino)phenyl]propionic acid]: the IC50 is under 100 nM.

For the molecule `O=C(Nc1ccccc1S(=O)(=O)N1CCCCC1)N[C@@H](Cc1ccc(NC(=O)c2c(Cl)cncc2Cl)cc1)C(=O)O` [Example 62, (S)-3-{4-[(3,5-Dichloropyridine-4-carbonyl)amino]phenyl}-2-{3-[2-(piperidine-1-sulfonyl)phenyl]ureido}propionic acid], the IC50 is under 100 nM.

On to `COc1ccc(OC)c(S(=O)(=O)c2ccc(Cl)cc2NC(=O)N[C@@H](Cc2ccc(NC(=O)c3c(Cl)cncc3Cl)cc2)C(=O)O)c1` [Example 64, (S)-2-{3-[5-Chloro-2-(2,5-dimethoxybenzenesulfonyl)phenyl]ureido}-3-{4-[(3,5-dichloropyridine-4-carbonyl)amino]phenyl}propionic acid], for which the IC50 is under 100 nM.

`CN(C1CCCCC1)S(=O)(=O)c1ccccc1NC(=O)N[C@@H](Cc1ccc(NC(=O)c2c(Cl)cncc2Cl)cc1)C(=O)O` [Example 66]: the IC50 is under 100 nM.

`O=C(Nc1cc(Cl)ccc1S(=O)(=O)c1ccccc1)N[C@@H](Cc1ccc(NC(=O)c2c(Cl)cncc2Cl)cc1)C(=O)O` [Example 68, (S)-2-[3-(2-Benzenesulfonyl-5-chlorophenyl)ureido]-3-{4-[(3,5-dichloropyridine-4-carbonyl)amino]phenyl}propionic acid]: the IC50 was under 100 nM.

For `O=C(Nc1ccccc1S(=O)(=O)c1ccccc1)N[C@@H](Cc1ccc(NC(=O)c2c(Cl)cncc2Cl)cc1)C(=O)O` [Example 70, (S)-2-[3-(2-Benzenesulfonylphenyl)ureido]-3-{4-[(3,5-dichloropyridine-4-carbonyl)amino]phenyl}propionic acid], the 50% inhibitory concentration (IC50) is under 100 nM.

Regarding `O=C(Nc1cccc(C(=O)c2ccccc2)c1)N[C@@H](Cc1ccc(NC(=O)c2c(Cl)cncc2Cl)cc1)C(=O)O` [Example 77, (S)-3(4-{[1-(3,5-Dichloropyridin-4-yl)methanoyl]amino}phenyl)-2-{3-[3-(1-phenylmethanoyl)phenyl]ureido}propionic acid], the IC50 is under 100 nM.

Consider `CN(C(=O)N[C@@H](Cc1ccc(NC(=O)c2c(Cl)cncc2Cl)cc1)C(=O)O)c1ccccc1Cc1ccccc1` [Example 79, (S)-2-[3-(2-Benzylphenyl)-3-methylureido]-3-(4-{[1-(3,5-dichloropyridin-4-yl)methandyl]amino}-phenyl)propionic acid], for which the half-maximal inhibitory concentration (IC50) is under 100 nM.

With `CN(C(=O)c1ccccc1NC(=O)N[C@@H](Cc1ccc(NC(=O)c2c(Cl)cncc2Cl)cc1)C(=O)O)C1CCCCC1` [Example 80], the half-maximal inhibitory concentration (IC50) is under 100 nM.

`CN(C(=O)N[C@@H](Cc1ccc(NC(=O)c2c(Cl)cncc2Cl)cc1)C(=O)O)c1ccccc1C(=O)N(C)C1CCCCC1` [Example 81]: the IC50 is under 100 nM.

Regarding `CCCCCN(C(=O)N[C@@H](Cc1ccc(NC(=O)c2c(Cl)cncc2Cl)cc1)C(=O)O)c1ccccc1C(=O)N(C)C1CCCCC1` [Example 84], the IC50 is under 100 nM.

For `CN(C(=O)c1ccccc1N(Cc1ccccc1)C(=O)N[C@@H](Cc1ccc(NC(=O)c2c(Cl)cncc2Cl)cc1)C(=O)O)C1CCCCC1` [Example 85], the IC50 was under 100 nM.

In the case of `CN(C(=O)c1ccccc1N(CC1CCCCC1)C(=O)N[C@@H](Cc1ccc(NC(=O)c2c(Cl)cncc2Cl)cc1)C(=O)O)C1CCCCC1` [Example 86], the half-maximal inhibitory concentration (IC50) is under 100 nM.

Take `CN(C(=O)N[C@@H](Cc1ccc(NC(=O)c2c(Cl)cncc2Cl)cc1)C(=O)O)c1ccccc1S(=O)(=O)N1CCCCC1` [Example 88, (S)-3-(4-{[1-(3,5-Dichloropyridin-4-yl)methyanoyl]amino}phenyl)-2-{3-methyl-3-[2-(piperidine-1-sulfonyl)phenyl]ureido}propionic acid.]: the 50% inhibitory concentration (IC50) is under 100 nM.

With `O=C(Nc1ccccc1S(=O)(=O)C1CCCC1)N[C@@H](Cc1ccc(NC(=O)c2c(Cl)cncc2Cl)cc1)C(=O)O` [Example 92, (S)-2-[3-(2-Cyclopentanesulfonylphenyl)ureido]-3-(4-{[1-(3,5-dichloropyridin-4-yl)methanoyl]amino}phenyl)propionic acid], the 50% inhibitory concentration (IC50) is under 100 nM.

As for `CC(C)(C)S(=O)(=O)c1ccccc1NC(=O)N[C@@H](Cc1ccc(NC(=O)c2c(Cl)cncc2Cl)cc1)C(=O)O` [Example 94, (S)-3-(4-{[1-(3,5-Dichloropyridin-4-yl)methanoyl]amino}phenyl)-2-{3-[2-(2-methylpropane-2-sulfonyl)phenyl]ureido}propionic acid], the IC50 is under 100 nM.

As to `Cc1csc2nc(Sc3ccccc3NC(=O)N[C@@H](Cc3ccc(NC(=O)c4c(Cl)cncc4Cl)cc3)C(=O)O)cnc12` [Example 96, (S)-3-(4-{[1-(3,5-Dichloropyridin-4-yl)methanoyl]amino}phenyl)-2-(3-[2-(7-methylthieno[2,3-b]pyrazin-3-ylsulfanyl)phenyl]ureido}propionic acid], the IC50 is under 100 nM.

For `O=C(Nc1ccccc1Sc1c(Cl)cncc1Cl)N[C@@H](Cc1ccc(NC(=O)c2c(Cl)cncc2Cl)cc1)C(=O)O` [Example 98, (S)-3-(4-{[1-(3,5-Dichloropyridin-4-yl)methanoyl]amino}phenyl)-2-{3-[2-(3,5-dichloropyridin-4-ylsulfanyl)phenyl]ureido}propionic acid], the half-inhibitory concentration (IC50) was under 100 nM.

As to `Cc1ccc(C(=O)Nc2ccc(C[C@H](NC(=O)Nc3ccccc3S(=O)(=O)c3ccccc3)C(=O)O)cc2)c(Cl)n1` [Example 103, (S)-2-[3-(2-Benzenesulfonylphenyl)ureido]-3-(4-{[1-(2-chloro-6-methylpyridin-3-yl)methanoyl]amino}phenyl)propionic acid], the IC50 was under 100 nM.

As to `COc1cncc(OC)c1C(=O)Nc1ccc(C[C@H](NC(=O)Nc2ccccc2S(=O)(=O)c2ccccc2)C(=O)O)cc1` [Example 105, (S)-2-[3-(2-Benzenesulfonylphenyl)ureido]-3-(4-{[1-(3,5-dimethoxypyridin-4-yl)-methanoyl]amino}phenyl)propionic acid], the half-maximal inhibitory concentration (IC50) was under 100 nM.

`O=C(Nc1ccccc1S(=O)(=O)c1ccccc1)N[C@@H](Cc1ccc(NC(=O)c2c(Br)cncc2Br)cc1)C(=O)O` [Example 106, (S)-2-[3-(2-Benzenesulfonylphenyl)ureido]-3-(4-{[1-(3,5-dibromopyridin-4-yl)-methanoyl]amino}phenyl)propionic acid]: the IC50 is under 100 nM.

On to `O=C(Nc1ccccc1S(=O)(=O)c1ccccc1)N[C@@H](Cc1ccc(NCc2c(Cl)cncc2Cl)cc1)C(=O)O` [Example 110, (S)-2-[3-(2-Benzenesulfonylphenyl)ureido]-3-{4-[(3,5-dichloropyridin-4-ylmethyl)amino]phenyl}propionic acid], for which the 50% inhibitory concentration (IC50) is under 100 nM.
